Reference: patent US20180055032A1, “ODORS FOR PSYLLID TRAPPING, REPELLING AND CONTROL” (The Regents of the University of California, priority 2011, published 2018)
Like-named read-outs stand apart in the source and are kept apart here.

Experiments:
Assay type in all cases: cell-based, Diaphorina citri
[1] = test system: neuron 7C (rhinarial plate on flagellomere 7); experiment: single-sensillum electrophysiology, odor response of neuron 7C; conditions: Table 2; odor diluted to 10^−2, 50 μL in cartridge
[2] = test system: neuron 2C (rhinarial plate on flagellomere 2); experiment: single-sensillum electrophysiology, odor response of neuron 2C; conditions: Table 2; odor diluted to 10^−2, 50 μL in cartridge
[3] = test system: neuron 7B (rhinarial plate on flagellomere 7)
[4] = test system: neuron 4A (rhinarial plate on flagellomere 4); experiment: single-sensillum electrophysiology, odor response of neuron 4A; conditions: Table 2; odor diluted to 10^−2, 50 μL in cartridge
[5] = test system: neuron 6C (rhinarial plate on flagellomere 6); experiment: single-sensillum electrophysiology, odor response of neuron 6C; conditions: Table 2; odor diluted to 10^−2, 50 μL in cartridge
[6] = test system: neuron 6B (rhinarial plate on flagellomere 6); experiment: single-sensillum electrophysiology, odor response of neuron 6B; conditions: Table 2; odor diluted to 10^−2, 50 μL in cartridge
[7] = test system: neuron 6A (rhinarial plate on flagellomere 6); experiment: single-sensillum electrophysiology, odor response of neuron 6A; conditions: Table 2; odor diluted to 10^−2, 50 μL in cartridge
[8] = test system: neuron 4B (rhinarial plate on flagellomere 4)
[9] = test system: neuron 7A (rhinarial plate on flagellomere 7); experiment: single-sensillum electrophysiology, odor response of neuron 7A; conditions: Table 2; odor diluted to 10^−2, 50 μL in cartridge
[10] = test system: neuron 2B (rhinarial plate on flagellomere 2); experiment: single-sensillum electrophysiology, odor response of neuron 2B; conditions: Table 2; odor diluted to 10^−2, 50 μL in cartridge
[11] = test system: neuron 2A (rhinarial plate on flagellomere 2); experiment: single-sensillum electrophysiology, odor response of neuron 2A; conditions: Table 2; odor diluted to 10^−2, 50 μL in cartridge
[12] = test system: neuron 4C (rhinarial plate on flagellomere 4); experiment: single-sensillum electrophysiology, odor response of neuron 4C; conditions: Table 2; odor diluted to 10^−2, 50 μL in cartridge
[13] = Table 2, odor diluted to 10^−2, 50 μL in cartridge
Further: key: 0, no response; +, >50 spikes/second; ++, >100 spikes/second; +++, >150 spikes/second.

CCCCCCN [hexylamine]
0: response to inhibitory odors, 7C [1] | response to inhibitory odors, 2C [2] | response to inhibitory odors, 7B [3, 13] | response to inhibitory odors, 4A [4] | response to inhibitory odors, 6C [5] | response to inhibitory odors, 6B [6] | response to inhibitory odors, 6A [7] | response to inhibitory odors, 4B [8, 13] | response to inhibitory odors, 7A [9] | response to inhibitory odors, 2B [10] | response to inhibitory odors, 2A [11]

CC(C)C(=O)O [isobutyric acid]
0: response to inhibitory odors, 7C [1] | response to inhibitory odors, 2C [2] | response to inhibitory odors, 7B [3, 13] | response to inhibitory odors, 4A [4] | response to inhibitory odors, 6B [6] | response to inhibitory odors, 6A [7] | response to inhibitory odors, 7A [9] | response to inhibitory odors, 2B [10] | response to inhibitory odors, 2A [11]

CCCCCCCCOC(C)=O [n-octyl acetate]
0: response to inhibitory odors, 7C [1] | response to inhibitory odors, 2C [2] | response to inhibitory odors, 7B [3, 13] | response to inhibitory odors, 4C [12] | response to inhibitory odors, 4A [4] | response to inhibitory odors, 6C [5] | response to inhibitory odors, 6B [6] | response to inhibitory odors, 6A [7] | response to inhibitory odors, 7A [9] | response to inhibitory odors, 2B [10] | response to inhibitory odors, 2A [11]

CCCCCN [pentylamine]
0: response to inhibitory odors, 7C [1] | response to inhibitory odors, 2C [2] | response to inhibitory odors, 7B [3, 13] | response to inhibitory odors, 4A [4] | response to inhibitory odors, 6C [5] | response to inhibitory odors, 6B [6] | response to inhibitory odors, 6A [7] | response to inhibitory odors, 4B [8, 13] | response to inhibitory odors, 7A [9] | response to inhibitory odors, 2A [11]

CCC(=O)O [propionic acid]
0: response to inhibitory odors, 7C [1] | response to inhibitory odors, 2C [2] | response to inhibitory odors, 7B [3, 13] | response to inhibitory odors, 4C [12] | response to inhibitory odors, 4A [4] | response to inhibitory odors, 6C [5] | response to inhibitory odors, 6A [7] | response to inhibitory odors, 7A [9] | response to inhibitory odors, 2B [10] | response to inhibitory odors, 2A [11]

Cl.Cl.NCCCCN [putrescine dihydrochloride]
0: response to inhibitory odors, 7C [1] | response to inhibitory odors, 2C [2] | response to inhibitory odors, 7B [3] | response to inhibitory odors, 4C [12] | response to inhibitory odors, 4A [4] | response to inhibitory odors, 6C [5] | response to inhibitory odors, 6B [6] | response to inhibitory odors, 6A [7] | response to inhibitory odors, 4B [8] | response to inhibitory odors, 7A [9] | response to inhibitory odors, 2A [11]

c1ccncc1 [pyridine]
0: response to inhibitory odors, 7C [1] | response to inhibitory odors, 2C [2] | response to inhibitory odors, 7B [3] | response to inhibitory odors, 4A [4] | response to inhibitory odors, 6C [5] | response to inhibitory odors, 6B [6] | response to inhibitory odors, 6A [7] | response to inhibitory odors, 4B [8] | response to inhibitory odors, 7A [9] | response to inhibitory odors, 2B [10] | response to inhibitory odors, 2A [11]

CC1CC(=O)O1 (stereo not drawn) [β-butyrolactone]
0: response to inhibitory odors, 7C [1] | response to inhibitory odors, 2C [2] | response to inhibitory odors, 7B [3, 13] | response to inhibitory odors, 4C [12] | response to inhibitory odors, 4A [4] | response to inhibitory odors, 6C [5] | response to inhibitory odors, 6B [6] | response to inhibitory odors, 6A [7] | response to inhibitory odors, 7A [9] | response to inhibitory odors, 2B [10] | response to inhibitory odors, 2A [11]
